Data as given in patent US10787425B2, “Thiazolidinedione derivative and use thereof” (INDUSTRY-ACADEMIC COOPERATION FOUNDATION CHOSUN UNIVERSITY, priority 2016, dated 2020).

Assays:
[1] = target: 15-PGDH (Homo sapiens (Human), UniProt P15428); test: 15-PGDH inhibitory activity (NADH at 340 nm); type: biochemical; conditions: concentration inhibiting 50% of 15-PGDH activity; purified 15-PGDH, 21 μM PGE2, 0.25 mM NAD+
Outline: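 GST-purified human 15-PGDH (E. coli BL-21 LysS, 10 μg) with 21 μM PGE2 and 0.25 mM NAD+ in 50 mM Tris-HCl pH 7.5, 0.1 mM DTT. Compound tested at 0.0001–64 μM; NADH formation read by absorbance at 340 nm against a standard curve.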

[2] = system: A549 cells; test: Measurement of PGE2 concentration in A549 cell medium (ELISA); type: cell-based, human; conditions: for Increment %: PGE2 concentration versus PBS control, 5 μM, 12 hours; for PGE2 concentration: inhibitor 5 μM, medium collected after 12 hours, ELISA
Outline: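 A549 cells in RPMI 1640 with 8% FBS, seeded at 5×10^5 cells/well and grown 24 h at 37° C, 5% CO2; at ~80% confluence treated with 15-PGDH inhibitor at 5 μM in PBS (PBS-only negative control). After 12 h, PGE2 in the medium was measured by ELISA against a standard curve.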

Sequence of 15-PGDH (P15428 whole entry): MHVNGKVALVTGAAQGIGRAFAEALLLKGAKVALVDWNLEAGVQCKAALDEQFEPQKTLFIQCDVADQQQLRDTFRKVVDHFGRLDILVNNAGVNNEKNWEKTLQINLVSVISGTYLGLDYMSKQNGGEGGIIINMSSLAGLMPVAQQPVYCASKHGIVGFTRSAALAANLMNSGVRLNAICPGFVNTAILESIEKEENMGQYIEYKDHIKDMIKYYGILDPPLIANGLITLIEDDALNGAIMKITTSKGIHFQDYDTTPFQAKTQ

Structure (SMILES) | IC50 [1] | Increment % [2] | PGE2 concentration [2]
O=C(CC1CCCC1)Oc1ccc(/C=C2\SC(=O)NC2=O)c(Cl)c1 [Compound 94, (Z)-3-chloro-4-((2,4-dioxothiazolidin-5-ylidene)methyl)phenyl 2-cyclopentylacetate] | 32.7 nM | 97.1474% | 220.1299 pg/mL
O=C(CCc1ccccc1)Oc1cccc(/C=C2\SC(=O)NC2=O)c1Cl [Compound 88, (Z)-2-chloro-3-((2,4-dioxothiazolidin-5-ylidene)methyl)phenyl 3-phenylpropanoate] | 22.5 nM | 113.47% | 449.1671 pg/mL
O=C(Cc1ccccc1)Oc1ccc(/C=C2\SC(=O)NC2=O)cc1 [Compound 72, (Z)-4-((2,4-dioxothiazolidin-5-ylidene)methyl)phenyl 2-phenylacetate] | 108 nM | −18.07% | 105.832 pg/mL
O=C1NC(=O)/C(=C/c2ccc(OC(=O)C3CCCCC3)cc2Cl)S1 [Compound 96, (Z)-3-chloro-4-((2,4-dioxothiazolidin-5-ylidene)methyl)phenyl cyclohexanecarboxylate] | 26.8 nM | 8.8874% | 121.5809 pg/mL
O=C(CCCC1CCCCC1)Oc1ccc(/C=C2\SC(=O)NC2=O)cc1 [Compound 69, (Z)-4-((2,4-dioxothiazolidin-5-ylidene)methyl)phenyl 4-cyclohexylbutanoate] | 26.1 nM | 134.45% | 302.8477 pg/mL
O=C1NC(=O)/C(=C/c2ccc(OC(=O)C3CCCCC3)cc2)S1 [Compound 66, (Z)-4-((2,4-dioxothiazolidin-5-ylidene)methyl)phenyl cyclohexanecarboxylate] | 88.8 nM | 2.49% | 132.3901 pg/mL
O=C1NC(=O)/C(=C/c2ccc(OC(=O)C3CCCC3)c(Cl)c2)S1 [Compound 3, (Z)-2-chloro-4-((2,4-dioxothiazolidin-5-ylidene)methyl)phenyl cyclopentanecarboxylate] | 196 nM | −30.1% | 191.3645 pg/mL
CCOc1cc(/C=C2\SC(=O)NC2=O)ccc1OC(=O)Cc1ccccc1 [Compound 57, (Z)-4-((2,4-dioxothiazolidin-5-ylidene)methyl)-2-ethoxyphenyl 2-phenylacetate] | 118 nM | −17.46% | 131.3485 pg/mL
CCOc1cc(/C=C2\SC(=O)NC2=O)ccc1OC(=O)C1CCCC1 [Compound 48, (Z)-4-((2,4-dioxothiazolidin-5-ylidene)methyl)-2-ethoxyphenyl cyclopentanecarboxylate] | 1400 nM | −22.79% | 211.539 pg/mL
CCOc1cc(/C=C2\SC(=O)NC2=O)ccc1OC(=O)CC1CCCC1 [Compound 49, (Z)-4-((2,4-dioxothiazolidin-5-ylidene)methyl)-2-ethoxyphenyl 2-cyclopentylacetate] | 128 nM | 9.34% | 299.5683 pg/mL
O=C(O)c1ccccc1.O=C1NC(=O)/C(=C/c2ccc(OC(=O)c3ccccc3)c(Br)c2)S1 [Compound 26, (Z)-2-bromo-4-((2,4-dioxothiazolidin-5-ylidene)methyl)phenylbenzoate] | 25.4 nM | −11.12% | 175.2752 pg/mL
CCOc1cc(/C=C2\SC(=O)NC2=O)ccc1OC(=O)CCC1CCCC1 [Compound 50, (Z)-4-((2,4-dioxothiazolidin-5-ylidene)methyl)-2-ethoxyphenyl 3-cyclopentylpropanoate] | 29 nM | 89.67% | 519.6554 pg/mL
O=C(CC1CCCC1)Oc1ccc(/C=C2\SC(=O)NC2=O)cc1 [Compound 64, (Z)-4-((2,4-dioxothiazolidin-5-ylidene)methyl)phenyl 2-cyclopentylacetate] | 52.1 nM | 25.34% | 199.4576 pg/mL
O=C(Cc1ccccc1)Oc1cccc(/C=C2\SC(=O)NC2=O)c1Cl [Compound 87, (Z)-2-chloro-3-((2,4-dioxothiazolidin-5-ylidene)methyl)phenyl 2-phenylacetate] | 105 nM | 89.77% | 399.2994 pg/mL
O=C(CCCc1ccccc1)Oc1ccc(/C=C2\SC(=O)NC2=O)cc1 [Compound 74, (Z)-4-((2,4-dioxothiazolidin-5-ylidene)methyl)phenyl 4-phenylbutanoate] | 50.7 nM | 27.71% | 164.9677 pg/mL
COc1cc(/C=C2\SC(=O)NC2=O)ccc1OC(=O)CC1CCCC1 [Compound 34, (Z)-4-((2,4-dioxothiazolidin-5-ylidene)methyl)-2-methoxyphenyl 2-cyclopentylacetate] | 60.2 nM | −70.77% | 57.64 pg/mL
O=C(CC1CCCC1)Oc1ccc(/C=C2\SC(=O)NC2=O)cc1Br [Compound 19, (Z)-2-bromo-4-((2,4-dioxothiazolidin-5-ylidene)methyl)phenyl 2-cyclopentylacetate] | 19.8 nM | −8.11% | 232.5151 pg/mL
CCOc1cc(/C=C2\SC(=O)NC2=O)ccc1OC(=O)CCCCC1CCCCC1 [Compound 55, (Z)-4-((2,4-dioxothiazolidin-5-ylidene)methyl)-2-ethoxyphenyl 5-cyclohexylpentanoate] | 34.4 nM | 7.8% | 295.349 pg/mL
COc1cc(/C=C2\SC(=O)NC2=O)ccc1OC(=O)C1CCCC1 [Compound 33, (Z)-4-((2,4-dioxothiazolidin-5-ylidene)methyl)-2-methoxyphenyl cyclopentanecarboxylate] | 494 nM | −2.32% | 192.6292 pg/mL
O=C(Cc1ccccc1)Oc1ccc(/C=C2\SC(=O)NC2=O)cc1Br [Compound 27, (Z)-2-bromo-4-((2,4-dioxothiazolidin-5-ylidene)methyl)phenyl 2-phenylacetate] | 40.6 nM | 99.65% | 393.7184 pg/mL
CCOc1cc(/C=C2\SC(=O)NC2=O)ccc1OC(=O)C1CCCCC1 [Compound 51, (Z)-4-((2,4-dioxothiazolidin-5-ylidene)methyl)-2-ethoxyphenyl cyclohexanecarboxylate] | 549 nM | 3.34% | 283.1296 pg/mL
O=C1NC(=O)/C(=C/c2ccc(OC(=O)C3CCCC3)c(Br)c2)S1 [Compound 18, (Z)-2-bromo-4-((2,4-dioxothiazolidin-5-ylidene)methyl)phenyl cyclopentanecarboxylate] | 50 nM | −21.7% | 198.1274 pg/mL
O=C(CCc1ccccc1)Oc1ccc(/C=C2\SC(=O)NC2=O)cc1Cl [Compound 13, (Z)-2-chloro-4-((2,4-dioxothiazolidin-5-ylidene)methyl)phenyl 3-phenylpropanoate] | 41.8 nM | 16.39% | 139.2902 pg/mL
COc1cc(/C=C2\SC(=O)NC2=O)ccc1OC(=O)CCCCC1CCCCC1 [Compound 40, (Z)-4-((2,4-dioxothiazolidin-5-ylidene)methyl)-2-methoxyphenyl 5-cyclohexylpentanoate] | 28.2 nM | 7.88% | 218.7373 pg/mL
COc1cc(/C=C2\SC(=O)NC2=O)ccc1OC(=O)CCCc1ccccc1 [Compound 44, (Z)-4-((2,4-dioxothiazolidin-5-ylidene)methyl)-2-methoxyphenyl 4-phenylbutanoate] | 23.9 nM | 299.80% | 810.6337 pg/mL
COc1cc(/C=C2\SC(=O)NC2=O)ccc1OC(=O)C1CCCCC1 [Compound 36, (Z)-4-((2,4-dioxothiazolidin-5-ylidene)methyl)-2-methoxyphenyl cyclohexanecarboxylate] | 242 nM | 101.32% | 408.196 pg/mL
CCOc1cc(/C=C2\SC(=O)NC2=O)ccc1OC(=O)CCc1ccccc1 [Compound 58, (Z)-4-((2,4-dioxothiazolidin-5-ylidene)methyl)-2-ethoxyphenyl 3-phenylpropanoate] | 94.3 nM | 7.97% | 171.8161 pg/mL
